Reference: patent US20230416258A1, “BENZ[…], AND PREPARATION METHOD THEREFOR AND USE THEREOF” (CHINA PHARMACEUTICAL UNIVERSITY, priority 2020, published 2023)

Test system: KM mice
Experiment: Test for drug-induced disappearance of righting reflex in mice
Format: in vivo
Settings: single rapid bolus via tail vein
Description: In anesthetic drug experiments, latency generally refers to the time from the start of administration to the loss of consciousness of the subject. The shorter latency is preferred, indicating a rapid onset of action after administration. The duration of anesthesia generally refers to the duration of time from the loss of consciousness to the restoration of consciousness of the subject. The duration of the drug will vary from animal model to animal species. Too long anesthesia may produce adverse cardiovascular and respiratory responses, such as adverse neurological effects to the subject, including sleepiness and dizziness; meanwhile, too short duration of anesthesia may affect the anesthesia effect, causing problems such as increase of anesthesia dosage during the operation.
KM mice (female, 18-25 g) were randomly grouped and subjected to a single administration by rapid bolus via the tail vein. The latency and duration of disappearance of righting reflex in the mice were recorded.

COC(=O)CC[C@@H]1N=C(c2ccccc2F)c2cc(Cl)ccc2-n2c(SCCCN(C)C)nnc21 [Compound 57, methyl (S)-3-(8-chloro-1-((3-(dimethylamino)propyl)thio)-6-(2-fluorophenyl)-4H-benzo[f][1,2,4]triazolo[4,3-a][1,4]diazepin-4-yl)propionate]
Duration (60 mg/kg): 5.89 min | Latency (60 mg/kg): 0.31 min

COC(=O)CC[C@@H]1N=C(c2ccccc2F)c2cc(Br)ccc2-n2c(SCCCN(C)C)nnc21 [Compound 58, methyl (S)-3-(8-bromo-1-((3-(dimethylamino)propyl)thio)-6-(2-fluorophenyl)-4H-benzo[f][1,2,4]triazolo[4,3-a][1,4]diazepin-4-yl)propionate]
Duration (30 mg/kg): 7.76 min | Latency (30 mg/kg): 0.25 min | Duration (60 mg/kg): 11.17 min | Latency (60 mg/kg): 0.33 min

COC(=O)CC[C@@H]1N=C(c2ccccc2F)c2cc(Cl)ccc2-n2c(SCCN3CCN(C)CC3)nnc21 [Compound 60, methyl (S)-3-(8-chloro-6-(2-fluorophenyl)-1-((2-(4-methylpiperazin-1-yl)ethyl)thio)-4H-benzo[f][1,2,4]triazolo[4,3-a][1,4]diazepin-4-yl)propionate]
Duration (30 mg/kg): 12.27 min | Latency (30 mg/kg): 0.49 min

COC(=O)CC[C@@H]1N=C(c2ccccc2F)c2cc(Br)ccc2-n2c(SCCN3CCN(C)CC3)nnc21 [Compound 61, methyl (S)-3-(8-bromo-6-(2-fluorophenyl)-1-((2-(4-methylpiperazin-1-yl)ethyl)thio)-4H-benzo[f][1,2,4]triazolo[4,3-a][1,4]diazepin-4-yl)propionate]
Duration (30 mg/kg): 12.28 min | Latency (30 mg/kg): 0.82 min

COC(=O)CC[C@@H]1N=C(c2ccccc2F)c2cc([N+](=O)[O-])ccc2-n2c(SCCN3CCN(C)CC3)nnc21 [Compound 62, methyl (S)-3-(8-nitro-6-(2-fluorophenyl)-1-((2-(4-methylpiperazin-1-yl)ethyl)thio)-4H-benzo[f][1,2,4]triazolo[4,3-a][1,4]diazepin-4-yl)propionate]
Duration (60 mg/kg): 10.05 min | Latency (60 mg/kg): 0.86 min

COC(=O)CC[C@@H]1N=C(c2ccccc2F)c2cc(Cl)ccc2-n2c(SC3CCN(C)CC3)nnc21 [Compound 63, methyl (S)-3-(8-chloro-6-(2-fluorophenyl)-1-((1-methylpiperidin-4-yl)thio)-4H-benzo[f][1,2,4]triazolo[4,3-a][1,4]diazepin-4-yl)propionate]
Duration (30 mg/kg): 15.25 min | Latency (30 mg/kg): 1.23 min

COC(=O)CC[C@@H]1N=C(c2ccccc2F)c2cc(Br)ccc2-n2c(SC3CCN(C)CC3)nnc21 [Compound 64, methyl (S)-3-(8-bromo-6-(2-fluorophenyl)-1-((1-methylpiperidin-4-yl)thio)-4H-benzo[f][1,2,4]triazolo[4,3-a][1,4]diazepin-4-yl)propionate]
Duration (60 mg/kg): 14.27 min | Latency (60 mg/kg): 0.99 min

COC(=O)CC[C@@H]1N=C(c2ccccc2F)c2cc([N+](=O)[O-])ccc2-n2c(SC3CCN(C)CC3)nnc21 [Compound 65, methyl (S)-3-(8-nitro-6-(2-fluorophenyl)-1-((1-methylpiperidin-4-yl)thio)-4H-benzo[f][1,2,4]triazolo[4,3-a][1,4]diazepin-4-yl)propionate]
Duration (30 mg/kg): 17.25 min | Latency (30 mg/kg): 1.74 min

COC(=O)CC[C@@H]1N=C(c2ccccc2F)c2cc(Cl)ccc2-n2c(SCCCN3CCN(CCO)CC3)nnc21 [Compound 66, methyl (S)-3-(8-chloro-6-(2-fluorophenyl)-1-((3-(4-(2-hydroxyethyl)piperazin-1-yl)propyl)thio)-4H-benzo[f][1,2,4]triazolo[4,3-a][1,4]diazepin-4-yl)propionate]
Duration (60 mg/kg): 4.27 min | Latency (60 mg/kg): 0.89 min
